In the test the test system is HT-22 cells. The experiment in a line: Effects on the oxidative stress induced by glutamate on cells in culture (HT-22), MTT viability. The class given is cell-based. Conditions: Mus musculus; protection of HT-22 cells from glutamate (5 mM); viability after 24 hours by MTT. How it is done: Study of the Effects on the Oxidative Stress Induced by Glutamate on Cells in Culture (HT-22):
The inhibitory activity of the products of the invention is determined by measuring their ability to protect the cells of a mouse hippocampal cell line (HT-22) from oxidative stress caused by glutamate. The biosynthesis of glutathione, an essential element in cell detoxification of free radicals, requires the active transport of cystine to inside the cell. The glutamate by opposing the penetration of cystine causes a reduction in the level of gluthatione which leads to the death of the cell by oxidative stress (Demerle-Pallardy, C. et al., J. Neurochem. (2000), 74, 2079-2086; Davis, J. B. and Maher, P., Brain Res., (1994) 652: 169-173; Murphy, T. H. et al., Neuron, (1989) 2: 1547-1558). The cells are cultured at 37° C. in a DMEM medium with 10% of fetal calf serum added to it. The tests are carried out in 96-well plates containing 5000 cells per well. The glutamate (5 mM) is added to the medium containing or not containing the products to be tested. The cell viability is tested after 24 hours by the MTT process (Hansen, M. B. et al., J. Immunol. Processes (1989) 119: 203-210). The ability of the compounds to protect the cells from the toxic action of the glutamate is estimated in EC50, calculated relative to the viability of cells which have not been subjected to the action of the glutamate considered as 100% viability.

Counter-ions that a name gives are not always drawn.

Take `NC(=Nc1ccc(N2CCN(C(=O)CCCCC3CCSS3)CC2)cc1)c1cccs1` (stereo not drawn) [Example 1, N′-(4-{4-[5-(1,2-dithiolan-3-yl)pentanoyl]-1-piperazinyl)phenyl)-2-thiophenecarboximidamide hydrochloride]: the EC50 (usually the concentration giving half of the maximal effect) was ≤ 4 µM. Turning to `NC(=Nc1ccc(N2CCN(C(=O)CC3CCSS3)CC2)cc1)c1cccs1` (stereo not drawn) [Example 2, N′-(4-{4-[2-(1,2-dithiolan-3-yl)acetyl]-1-piperazinyl}phenyl)-2-thiophenecarboximidamide], the EC50 is ≤ 4 µM. Next, `NC(=Nc1cccc(CN2CCN(C(=O)CC3CCSS3)CC2)c1)c1cccs1` (stereo not drawn) [Example 4, N′-[3-({4-[2-(1,2-dithiolan-3-yl)acetyl]-1-piperazinyl}methyl)phenyl]-2-thiophenecarboximidamide]: ≤ 4 µM; `NC(=Nc1ccc(N2CCN(C(=O)NCCCCC3CCSS3)CC2)cc1)c1cccs1` (stereo not drawn) [Example 5, 4-(4-{[amino(2-thienyl)methylidene]amino}phenyl)-N-[4-(1,2-dithiolan-3-yl)butyl]-1-piperazinecarboxamide]: ≤ 4 µM; `Cc1cc(N2CCN(C(=O)NCCCCC3CCSS3)CC2)ccc1N=C(N)c1cccs1` (stereo not drawn) [Example 7, 4-(4-{[amino(2-thienyl)methylidene]amino}-3-methylphenyl)-N-[4-(1,2-dithiolan-3-yl)butyl]-1-piperazinecarboxamide]: ≤ 4 µM. Regarding `COc1cc(N=C(N)c2cccs2)ccc1N1CCN(C(=O)NCCCCC2CCSS2)CC1` (stereo not drawn) [Example 8, 4-(4-{[amino(2-thienyl)methylidene]amino}-2-methoxyphenyl)-N-[4-(1,2-dithiolan-3-yl)butyl]-1-piperazinecarboxamide], the EC50 was ≤ 4 µM. As for `COc1cc(N2CCN(C(=O)NCCCCC3CCSS3)CC2)ccc1N=C(N)c1cccs1` (stereo not drawn) [Example 9, 4-(4-{[amino(2-thienyl)methylidene]amino}-3-methoxyphenyl)-N-[4-(1,2-dithiolan-3-yl)butyl]-1-piperazinecarboxamide], the EC50 is ≤ 4 µM. As for `N#Cc1cc(N=C(N)c2cccs2)ccc1N1CCN(C(=O)NCCCCC2CCSS2)CC1` (stereo not drawn) [Example 10, 4-(4-{[amino(2-thienyl)methylidene]amino}-2-cyanophenyl)-N-[4-(1,2-dithiolan-3-yl)butyl]-1-piperazinecarboxamide], the EC50 is ≤ 4 µM. For the molecule `NC(=Nc1cccc(CN2CCN(C(=O)NCCCCC3CCSS3)CC2)c1)c1cccs1` (stereo not drawn) [Example 11, 4-(3-{[amino(2-thienyl)methylidene]amino}benzyl)-N-[4-(1,2-dithiolan-3-yl)butyl]-1-piperazinecarboxamide], the EC50 is ≤ 4 µM.
